Experimental data: US9198879B2, “Pharmacologically optimized multimodal drug delivery system for nordihydroguiaretic acid (NDGA)” (Napo Pharmaceuticals, Inc., priority 2011, dated 2015)
Entries after “also recorded” stand apart in the source; their conditions may differ.

Experiments:
[1] = cited from earlier work
[2] = test system: fructose-fed hypertriglyceridemic rats; test: Fructose-fed hypertriglyceridemic rat model; type: in vivo
Excerpt: (§1) It is likely that the triglyceride-lowering effect of NDGA may also be explained, at least in part, by the suppression of free fatty acid (FFA) release. Free fatty acids in the circulation can enter the liver and can be re-assembled into triglycerides by the process of re-esterification. […] It should be noted that other mechanisms for reducing triglycerides, such as increased triglyceride clearance, are not ruled out by these findings.
(§2) These reductions in free fatty acid concentration could result from either decreased production (by reduced lipolysis) or increased removal of free fatty acids from the circulation by liver, fat or muscle.

[3] = test system: ZDF rats; test: Glucose and triglyceride lowering in ZDF rats; type: in vivo, rat
Excerpt: (§3) In this study, the following animal models where used: • Db/db mice: homozygous mice are a model of obesity, diabetes and dyslipedemia where their leptin receptor activity is deficient. • Ob/ob mice: obese mice with diabetes. • Db/lean mice: heterozygous mice that are not diabetic. • Fat/STZ rats: non-genetically diabetic overweight rats that are fed diets enriched in fat and made hyperglycemic by chemically removing their pancreatic function to reduce insulin production by treating them with streptozotocin (STZ). • Fructose/STZ rats: non-diabetic rats that are fed diets enriched in fructose and made hyperglycemic by treating them with STZ. • ZDF rats: obese and hyperglycemic rats with other metabolic disorders.
(§4) Baseline glucose and triglyceride concentrations, where appropriate, were measured for both diabetic and normal animals.

[4] = test system: Db/db mice; test: Glucose lowering in db/db mice; type: in vivo, mouse; settings: db/db mice with diabetes, given orally
Excerpt: as §3, §4

[5] = test system: liver triglyceride secretion; test: Liver triglyceride secretion; type: in vivo; settings: NDGA treatment
Excerpt: as §1
The triglyceride-lowering effect of NDGA may be explained by the suppression of free fatty acid (FFA) release. Free fatty acids in the circulation can enter the liver and be re-assembled into triglycerides in a process known as re-esterification.

[6] = test system: fat/STZ rat; test: Basal hepatic glucose production by intravenous infusion of radiolabeled glucose; type: in vivo; settings: no insulin infused, p<0.05
Description: (§5) Studies were also conducted to determine the mechanism by which NDGA lowers glucose. To do so, NDGA was administered to determine the effects of NDGA on insulin-stimulated glucose disposition and on basal hepatic glucose production using the high fat diet fed/streptozotocin (STZ) rat model of NIDDM. Whole-body insulin-stimulated glucose disposition was measured using a constant intravenous glucose/insulin infusion, in which the steady-state plasma insulin concentration (SSPI) is held constant and the steady-state plasma glucose concentration (SSPG) is a measure of net glucose clearance. […] In these same studies basal hepatic glucose production was measured using an intravenous infusion of radiolabeled glucose (no insulin was infused).
(§6) Studies were conducted to determine the effects of NDGA (masoprocol) on insulin-stimulated glucose disposition and on basal hepatic glucose production using the fat/STZ rat. Whole-body insulin-stimulated glucose disposition was measured using a constant intravenous glucose/insulin infusion, in which the steady-state plasma insulin concentration (SSPI) is held constant and the steady-state plasma glucose concentration (SSPG) is a measure of net glucose clearance.

[7] = Phase I safety study, patients reporting adverse events; type: in vivo, human; settings: n = 29
Description: (§7) The first Phase I study of NDGA was an ascending-dose, single-dose, single-blind (subject), placebo-controlled study conducted in healthy male volunteers between 18 and 45 years old. Fourteen subjects participated in up to 3 study periods, and 5 doses of NDGA were studied: 200, 400, 800, 1600, and 2000 mg. During each study period the subjects were monitored for safety for 72 hours following NDGA oral administration. Blood samples collected following NDGA administration were used to determine NDGA concentrations in plasma. […] The orally administered NDGA used in the study was contained in white, opaque, size 3 gelatin capsules. Each capsule contained 100 mg of NDGA.
The second Phase I study of NDGA was an open-label, randomized, two-period crossover study designed to determine if a high-fat meal affects the absorption of NDGA, and to provide preliminary information about possible gender differences in the pharmacokinetics of NDGA. A total of 16 healthy volunteers (8 men and 8 women), ranging in age from 19 to 48 years old, participated in this study. Each subject received an active NDGA dose under fasted conditions and another under fed conditions (the two study periods were separated by a 7-day washout period). Blood samples were collected immediately before and for 48 hours following NDGA administration and used for determination of plasma concentrations of NDGA. The NDGA used in the study was provided in white, opaque Size 0 gelatin capsules. Each capsule contained 250 mg of NDGA.

[8] = test system: Ob/ob mice; test: Glucose lowering in ob/ob mice; type: in vivo, mouse; settings: ob/ob mice with diabetes, given orally
Excerpt: as §3, §4

[9] = test system: fat/STZ rat; test: Whole-body insulin-stimulated glucose disposition (SSPG) with constant intravenous glucose/insulin infusion; type: in vivo; settings: steady-state plasma insulin held constant
Description: as §5, §6

[10] = First Phase I ascending single-dose study, NDGA concentrations in plasma after oral capsules; type: in vivo, human; settings: for AUC0-last / Cmax / Tmax: capsule, healthy male volunteers
Description: as §7
The results for each of the five doses are depicted in FIGS. 4 to 8 corresponding to 200, 400, 800, 1600 and 2000 mg dosages, respectively.
The pharmacokinetic parameters of NDGA as observed in this experiment are given below in Table 1: […]

[11] = test system: Fructose/STZ rats; test: Triglyceride and FFA lowering in Fructose/STZ rats; type: in vivo, rat; settings: fructose-fed/STZ rats
Excerpt: as §3, §2

AUC0-last ([10]; 200 mg single oral dose): 66 +/− 26 ng-eq hr/ml
Cmax ([10]; 200 mg single oral dose): 32.6 +/− 15.3 ng-eq/ml
Tmax ([10]; 200 mg single oral dose): 1.3 ± 0.5 h
AUC0-last ([10]; 400 mg single oral dose): 385 +/− 90 ng-eq hr/ml
Cmax ([10]; 400 mg single oral dose): 69.1 +/− 51.6 ng-eq/ml
Tmax ([10]; 400 mg single oral dose): 1.8 ± 0.5 h
AUC0-last ([10]; 800 mg single oral dose): 591 +/− 252 ng-eq hr/ml
Cmax ([10]; 800 mg single oral dose): 120.3 +/− 66.3 ng-eq/ml
Tmax ([10]; 800 mg single oral dose): 1.8 ± 1.0 h
AUC0-last ([10]; 1600 mg single oral dose): 889 +/− 252 ng-eq hr/ml
Cmax ([10]; 1600 mg single oral dose): 189.3 +/− 65.7 ng-eq/ml
Tmax ([10]; 1600 mg single oral dose): 1.5 ± 0.6 h
AUC0-last ([10]; 2000 mg single oral dose): 1380 +/− 514 ng-eq hr/ml
Cmax ([10]; 2000 mg single oral dose): 187.6 +/− 106.0 ng-eq/ml
Tmax ([10]; 2000 mg single oral dose): 1.0 ± 0.0 h
Shape of concentration vs. time curves ([10]; all five doses, 200 to 2000 mg): unimodal (single peak)
Dose proportionality of peaks ([10]; increasing dose levels, 200 to 2000 mg): less than dose proportional
Elimination ([10]; oral capsule (immediate release), lower dose levels): rapid elimination
Compound: CC(Cc1ccc(O)c(O)c1)C(C)Cc1ccc(O)c(O)c1 (stereo not drawn) [NDGA, nordihydroguaiaretic acid]
solubility in aqueous media / water ([1]; aqueous media): poorly water-soluble; also recorded: insoluble
solubility in organic solvents ([1]; organic solvents such as methanol and ethanol): soluble
free fatty acid (FFA) concentrations ([2]; fructose-fed hypertriglyceridemic rats): decreases free fatty acid (FFA) concentrations
glucose lowering ([2]; fructose-fed rats, 80 mg/kg twice daily): did not lower glucose levels
triglyceride lowering ([2]; hypertriglyceridemic rat model, low doses of 10 and 20 mg/kg): triglyceride-lowering effects
plasma triglyceride lowering [3]: significantly and dramatically lowered plasma triglycerides
glucose lowering ([3]; given orally): significantly lowers glucose
glucose lowering [4]: significantly lowers glucose
liver triglyceride secretion [5]: inhibit liver triglyceride secretion
hourly hepatic glucose production compared to vehicle [6]: significantly reduced hourly hepatic glucose production
Patients reporting adverse event: Abdominal pain ([7]; Body as a whole): 1
Patients reporting adverse event: Asthenia ([7]; Body as a whole): 2
Patients reporting adverse event: Headache ([7]; Body as a whole): 8
Patients reporting adverse event: Neck rigidity ([7]; Body as a whole): 1
Patients reporting adverse event: Pain ([7]; Body as a whole): 1
Patients reporting adverse event: Syncope ([7]; Cardiovascular system): 1
Patients reporting adverse event: Diarrhea ([7]; Digestive system): 2
Patients reporting adverse event: Dyspepsia ([7]; Digestive system): 1
Patients reporting adverse event: GI hemorrhage ([7]; Digestive system): 1
Patients reporting adverse event: Increased appetite ([7]; Digestive system): 1
Patients reporting adverse event: Vomiting ([7]; Digestive system): 1
Patients reporting adverse event: Dizziness ([7]; Nervous system): 1
Patients reporting adverse event: Hyperesthesia ([7]; Nervous system): 1
Patients reporting adverse event: Increased coughing ([7]; Respiratory system): 1
Patients reporting adverse event: Pharyngitis ([7]; Respiratory system): 1
Patients reporting adverse event: Eye pain ([7]; Special senses): 1
Patients reporting adverse event: Hematuria ([7]; Urogenital system): 1
glucose lowering [8]: significantly lowers glucose
reduction of steady-state plasma glucose concentration (SSPG) versus vehicle control group ([9]; p<0.05): approximately 30%
reduction of steady-state plasma glucose concentration (SSPG) versus vehicle control group ([9]; p<0.05, listed as Masoprocol): 30%
Safety of each tested dose ([10]; 200, 400, 800, 1600 and 2000 mg single oral dose, monitored 72 hours): considered safe
free fatty acid (FFA) concentrations [11]: decreases free fatty acid (FFA) concentrations
plasma triglyceride lowering [11]: significantly and dramatically lowered plasma triglycerides
